{
  "source": "patent US12599625B2",
  "about": "“Treatment of ARDS and other conditions caused by acutely elevated cytokine levels and post ARDS chronic cytokine production using inhaled anesthetics” (priority 2021, dated 2026)",
  "tested_on": "substance P",
  "test": "Clinical observation: relief of symptoms caused by acute and chronic excessive substance P",
  "type": "in vivo, human",
  "data": [
    {"smiles": "[N-]=[N+]=O", "note": "[nitrous oxide]", "values": [
      {"measurement": "relief of symptoms of COVID-19 and asthma", "setting": "about 20 minutes of nitrous oxide every about 4-6 hours", "value": "may be relieved"},
      {"measurement": "relief of symptoms of COPD and asthma", "setting": "nitrous oxide every about 4-6 hours", "value": "ray be relived"}
    ]}
  ]
}
